Assay results taken from patent US20150299188A1, “HETEROCYCLIC COMPOUND” (priority 2012, published 2015).

System: FLAP (5-lipoxygenase activating protein)
Experiment: In vitro binding test: displacement of [3H]-7-chloro-3-(5-((3-fluoropyridin-2-yl)methoxy)-2-methylphenyl)-3,4-dihydroquinazolin-2(1H)-one from Sf9 microsome fractions
Parameters: species or system human and mouse
Conditions: Sf9 microsome fractions expressing FLAP; 100% = radioligand binding with 10 μM sodium 3-(3-(tert-butylsulfanyl)-1-(4-chlorobenzyl)-5-isopropyl-1H-indol-2-yl)-2,2-dimethylpropanoate, 0% = DMSO; test compound concentration not given
Procedure: As an assay buffer, 100 mM Tris-HCl, pH 7.5, 140 mM NaCl, 2 mM EDTA, 0.5 mM dithiothreitol, 5% glycerol, 0.05% Tween20 was used. Sf9 microsome fractions expressing human and mouse FLAPs were dispensed by 50 μL to a 96-well plate at 2 μg/mL. Furthermore, a test compound (25 μL) diluted 4-fold of the final concentration with the assay buffer was added and mixed therewith, and the mixture was incubated at room temperature for 10 min. Furthermore, 120 nM [^3H]-7-chloro-3-(5-((3-fluoropyridin-2-yl)methoxy)-2-methylphenyl)-3,4-dihydroquinazolin-2(1H)-one was added by 25 μL, and mixed therewith, and the mixture was incubated at room temperature for 60 min. Thereafter, the cells were transferred to a 96-well GF/B Unifilter plate with a FilterMate cell harvester, and washed 3 times with a wash buffer (100 mM Tris-HCl pH 7.5, 0.05% Tween20, 200 μL) cooled to 4° C. The GF/B Unifilter plate was dried at 37° C., Microscint 0 was added and measured by TopCount NXT (PerkinElmer). As for the inhibitory activity, the inhibitory rate was calculated wherein the [^3H]-7-chloro-3-(5-((3-fluoropyridin-2-yl)methoxy)-2-methylphenyl)-3,4-dihydroquinazolin-2(1H)-one binding amount in the presence of 10 μM sodium 3-(3-(tert-butylsulfanyl)-1-(4-chlorobenzyl)-5-isopropyl-1H-indol-2-yl)-2,2-dimethylpropanoate was 100%, and the [^3H]-7-chloro-3-(5-((3-fluoropyridin-2-yl)methoxy)-2-methylphenyl)-3,4-dihydroquinazolin-2(1H)-one binding amount in the presence of DMSO was 0%.

Row | Structure (SMILES) | inhibitory rate (%)
1 | Cc1ccc(OCc2ncccc2F)cc1N1Cc2c(Cl)cccc2N(CC(N)=O)C1=O [Example 286, 2-(5-chloro-3-(5-((3-fluoropyridin-2-yl)methoxy)-2-methylphenyl)-2-oxo-3,4-dihydroquinazolin-1(2H)-yl)acetamide] | 112%
2 | CCOC(=O)CCCCc1ccc(OCc2ncccc2F)cc1N1Cc2ccccc2NC1=O [Example 248, ethyl 5-(4-((3-fluoropyridin-2-yl)methoxy)-2-(2-oxo-1,4-dihydroquinazolin-3(2H)-yl)phenyl)pentanoate] | 98%
3 | O=C1Nc2cc(CO)ccc2CN1c1cc(OCc2c(F)cccc2F)ccc1CC1CCCCC1 [Example 290, 3-(2-(cyclohexylmethyl)-5-((2,6-difluorobenzyl)oxy)phenyl)-7-(hydroxymethyl)-3,4-dihydroquinazolin-2(1H)-one] | 97%
4 | COc1ncc(C(F)(F)F)c2c1NC(=O)N(c1cc3c(cc1Cl)CCC(c1ncccc1F)O3)C2 (stereo not shown) [Example 108, 3-(6-chloro-2-(3-fluoropyridin-2-yl)-3,4-dihydro-2H-chromen-7-yl)-8-methoxy-5-(trifluoromethyl)-3,4-dihydropyrido[3,4-d]pyrimidin-2(1H)-one] | 104%
5 | Cc1ccc(OCc2ncccc2F)cc1N1Cc2c(Cl)cccc2N(CC(=O)O)C1=O [Example 285, (5-chloro-3-(5-((3-fluoropyridin-2-yl)methoxy)-2-methylphenyl)-2-oxo-3,4-dihydroquinazolin-1(2H)-yl)acetic acid] | 102%
6 | Cc1ccc(OCc2ncccc2F)cc1N1Cc2ccc(C(=O)NCC(F)(F)F)cc2NC1=O [Example 303, 3-(5-((3-fluoropyridin-2-yl)methoxy)-2-methylphenyl)-2-oxo-N-(2,2,2-trifluoroethyl)-1,2,3,4-tetrahydroquinazoline-7-carboxamide] | 108%
7 | COc1nccc2c1CN(c1cc(OCc3ncccc3F)ccc1C)C(=O)N2 [Example 307, 3-(5-((3-fluoropyridin-2-yl)methoxy)-2-methylphenyl)-5-methoxy-3,4-dihydropyrido[4,3-d]pyrimidin-2(1H)-one] | 100%
8 | CC(C)(O)CNC(=O)c1cc2c(c(C3CC3)n1)CN(c1cc3c(cc1Cl)CCC(c1ncccc1F)O3)C(=O)N2 (stereo not shown) [Example 114, 3-(6-chloro-2-(3-fluoropyridin-2-yl)-3,4-dihydro-2H-chromen-7-yl)-5-cyclopropyl-N-(2-hydroxy-2-methylpropyl)-2-oxo-1,2,3,4-tetrahydropyrido[4,3-d]pyrimidine-7-carboxamide] | 106%
9 | O=C1Nc2ccnc(Cl)c2CN1c1cc2c(cc1Cl)CCC(c1ncccc1F)O2 (racemic) [Example 1, 5-chloro-3-(6-chloro-2-(3-fluoropyridin-2-yl)-3,4-dihydro-2H-chromen-7-yl)-3,4-dihydropyrido[4,3-d]pyrimidin-2(1H)-one] | 94%
10 | Cc1cc2c(cc1N1Cc3cnc(Cl)cc3NC1=O)OC(c1ncccc1F)CC2 (stereo not shown) [Example 47, 7-chloro-3-(2-(3-fluoropyridin-2-yl)-6-methyl-3,4-dihydro-2H-chromen-7-yl)-3,4-dihydropyrido[4,3-d]pyrimidin-2(1H)-one] | 114%
11 | O=c1[nH]c2cn(CC3CC3)nc2c(=O)n1-c1cc(OCc2ncccc2F)ccc1Br [Example 358, 6-(2-bromo-5-((3-fluoropyridin-2-yl)methoxy)phenyl)-2-(cyclopropylmethyl)-2H-pyrazolo[4,3-d]pyrimidine-5,7(4H,6H)-dione] | 101%
12 | CC(C)(O)c1ccc2c(c1)NC(=O)N(c1cc(OCc3c(F)cccc3F)ccc1F)C2 [Example 233, 3-(5-((2,6-difluorobenzyl)oxy)-2-fluorophenyl)-7-(2-hydroxypropan-2-yl)-3,4-dihydroquinazolin-2(1H)-one] | 87%
13 | Cc1ccc(OCc2ncccc2F)cc1-n1c(=O)[nH]c2ccc(Cl)cc2c1=O [Example 355, 6-chloro-3-(5-((3-fluoropyridin-2-yl)methoxy)-2-methylphenyl)quinazoline-2,4(1H,3H)-dione] | 94%
14 | O=C1Nc2c(ccnc2Cl)CN1c1cc2c(cc1Cl)CCC(c1ncccc1F)O2 (stereo not shown) [Example 54, 8-chloro-3-(6-chloro-2-(3-fluoropyridin-2-yl)-3,4-dihydro-2H-chromen-7-yl)-3,4-dihydropyrido[3,4-d]pyrimidin-2(1H)-one] | 115%
15 | Cc1cc2c(cc1N1Cc3c(Cl)cnc(C4CC4)c3NC1=O)OC(c1ncccc1F)CC2 (stereo not shown) [Example 142, 5-chloro-8-cyclopropyl-3-(2-(3-fluoropyridin-2-yl)-6-methyl-3,4-dihydro-2H-chromen-7-yl)-3,4-dihydropyrido[3,4-d]pyrimidin-2(1H)-one] | 102%
16 | Cc1cc2c(cc1N1Cc3c(cc(/C=C/C(=O)O)nc3C3CC3)NC1=O)OC(c1ncccc1F)CC2 (stereo not shown) [Example 91, (2E)-3-(5-cyclopropyl-3-(2-(3-fluoropyridin-2-yl)-6-methyl-3,4-dihydro-2H-chromen-7-yl)-2-oxo-1,2,3,4-tetrahydropyrido[4,3-d]pyrimidin-7-yl)acrylic acid] | 109%
17 | O=C1Nc2ccccc2CN1c1cc(OCc2ncccc2F)ccc1Br [Example 212, 3-(2-bromo-5-((3-fluoropyridin-2-yl)methoxy)phenyl)-3,4-dihydroquinazolin-2(1H)-one] | 113%
18 | O=C1Nc2cc(=O)[nH]c(C3CC3)c2CN1c1cc2c(cc1Cl)CCC(c1ncccc1F)O2 (stereo not shown) [Example 17, 3-(6-chloro-2-(3-fluoropyridin-2-yl)-3,4-dihydro-2H-chromen-7-yl)-5-cyclopropyl-4,6-dihydropyrido[4,3-d]pyrimidine-2,7(1H,3H)-dione] | 110%
19 | Cc1cc2c(cc1N1Cc3c(cc(-n4cc(CO)cn4)nc3C3CC3)NC1=O)OC(c1ncccc1F)CC2 (stereo not shown) [Example 123, 5-cyclopropyl-3-(2-(3-fluoropyridin-2-yl)-6-methyl-3,4-dihydro-2H-chromen-7-yl)-7-(4-(hydroxymethyl)-1H-pyrazol-1-yl)-3,4-dihydropyrido[4,3-d]pyrimidin-2(1H)-one] | 98%
20 | COC(=O)c1ccc2c(c1)NC(=O)N(c1cc(OCc3ccc(F)cc3F)ccc1C)C2 [Example 200, methyl 3-(5-((2,4-difluorobenzyl)oxy)-2-methylphenyl)-2-oxo-1,2,3,4-tetrahydroquinazoline-7-carboxylate] | 100%
21 | Cc1ccc(OCc2ncccc2F)cc1-n1c(=O)[nH]c2cccc(OCC3CC3)c2c1=O [Example 367, 5-(cyclopropylmethoxy)-3-(5-((3-fluoropyridin-2-yl)methoxy)-2-methylphenyl)quinazoline-2,4(1H,3H)-dione] | 100%
22 | Cc1ccc(OCc2cccc(F)c2F)cc1N1Cc2ccc(C(C)(C)O)cc2NC1=O [Example 203, 3-(5-((2,3-difluorobenzyl)oxy)-2-methylphenyl)-7-(2-hydroxypropan-2-yl)-3,4-dihydroquinazolin-2(1H)-one] | 81%
